Counter-ions that a name gives are not always drawn.
biological target: T1, recombinant human baculovirus-expressed GST-tagged FASN (Homo sapiens, UniProt P49327); assay: FASN enzyme activity assay, fluorescence-based detection of CoA with CPM; format: biochemical; conditions: 5 nM FASN, 150 μM NADPH, 10 μM acetyl-CoA, 25 μM malonyl-CoA, 90 minutes incubation; read-out: IC50 data for Compounds of Formulae I-V/V(a): Activity
T1 construct: GST
Summary of the method: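 CoA product reacted with thiol-reactive CPM (diluted to 50 μM in 70% ethanol), read at 390/530 nm after 30 min. Preceding reaction: 90 min, 5 nM recombinant GST-FASN, 150 μM NADPH, 10 μM acetyl-CoA, 25 μM malonyl-CoA, pH 7.5 HEPES, 0.5% DMSO. IC50s fitted by nonlinear sigmoidal regression.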

T1 sequence (P49327 whole entry): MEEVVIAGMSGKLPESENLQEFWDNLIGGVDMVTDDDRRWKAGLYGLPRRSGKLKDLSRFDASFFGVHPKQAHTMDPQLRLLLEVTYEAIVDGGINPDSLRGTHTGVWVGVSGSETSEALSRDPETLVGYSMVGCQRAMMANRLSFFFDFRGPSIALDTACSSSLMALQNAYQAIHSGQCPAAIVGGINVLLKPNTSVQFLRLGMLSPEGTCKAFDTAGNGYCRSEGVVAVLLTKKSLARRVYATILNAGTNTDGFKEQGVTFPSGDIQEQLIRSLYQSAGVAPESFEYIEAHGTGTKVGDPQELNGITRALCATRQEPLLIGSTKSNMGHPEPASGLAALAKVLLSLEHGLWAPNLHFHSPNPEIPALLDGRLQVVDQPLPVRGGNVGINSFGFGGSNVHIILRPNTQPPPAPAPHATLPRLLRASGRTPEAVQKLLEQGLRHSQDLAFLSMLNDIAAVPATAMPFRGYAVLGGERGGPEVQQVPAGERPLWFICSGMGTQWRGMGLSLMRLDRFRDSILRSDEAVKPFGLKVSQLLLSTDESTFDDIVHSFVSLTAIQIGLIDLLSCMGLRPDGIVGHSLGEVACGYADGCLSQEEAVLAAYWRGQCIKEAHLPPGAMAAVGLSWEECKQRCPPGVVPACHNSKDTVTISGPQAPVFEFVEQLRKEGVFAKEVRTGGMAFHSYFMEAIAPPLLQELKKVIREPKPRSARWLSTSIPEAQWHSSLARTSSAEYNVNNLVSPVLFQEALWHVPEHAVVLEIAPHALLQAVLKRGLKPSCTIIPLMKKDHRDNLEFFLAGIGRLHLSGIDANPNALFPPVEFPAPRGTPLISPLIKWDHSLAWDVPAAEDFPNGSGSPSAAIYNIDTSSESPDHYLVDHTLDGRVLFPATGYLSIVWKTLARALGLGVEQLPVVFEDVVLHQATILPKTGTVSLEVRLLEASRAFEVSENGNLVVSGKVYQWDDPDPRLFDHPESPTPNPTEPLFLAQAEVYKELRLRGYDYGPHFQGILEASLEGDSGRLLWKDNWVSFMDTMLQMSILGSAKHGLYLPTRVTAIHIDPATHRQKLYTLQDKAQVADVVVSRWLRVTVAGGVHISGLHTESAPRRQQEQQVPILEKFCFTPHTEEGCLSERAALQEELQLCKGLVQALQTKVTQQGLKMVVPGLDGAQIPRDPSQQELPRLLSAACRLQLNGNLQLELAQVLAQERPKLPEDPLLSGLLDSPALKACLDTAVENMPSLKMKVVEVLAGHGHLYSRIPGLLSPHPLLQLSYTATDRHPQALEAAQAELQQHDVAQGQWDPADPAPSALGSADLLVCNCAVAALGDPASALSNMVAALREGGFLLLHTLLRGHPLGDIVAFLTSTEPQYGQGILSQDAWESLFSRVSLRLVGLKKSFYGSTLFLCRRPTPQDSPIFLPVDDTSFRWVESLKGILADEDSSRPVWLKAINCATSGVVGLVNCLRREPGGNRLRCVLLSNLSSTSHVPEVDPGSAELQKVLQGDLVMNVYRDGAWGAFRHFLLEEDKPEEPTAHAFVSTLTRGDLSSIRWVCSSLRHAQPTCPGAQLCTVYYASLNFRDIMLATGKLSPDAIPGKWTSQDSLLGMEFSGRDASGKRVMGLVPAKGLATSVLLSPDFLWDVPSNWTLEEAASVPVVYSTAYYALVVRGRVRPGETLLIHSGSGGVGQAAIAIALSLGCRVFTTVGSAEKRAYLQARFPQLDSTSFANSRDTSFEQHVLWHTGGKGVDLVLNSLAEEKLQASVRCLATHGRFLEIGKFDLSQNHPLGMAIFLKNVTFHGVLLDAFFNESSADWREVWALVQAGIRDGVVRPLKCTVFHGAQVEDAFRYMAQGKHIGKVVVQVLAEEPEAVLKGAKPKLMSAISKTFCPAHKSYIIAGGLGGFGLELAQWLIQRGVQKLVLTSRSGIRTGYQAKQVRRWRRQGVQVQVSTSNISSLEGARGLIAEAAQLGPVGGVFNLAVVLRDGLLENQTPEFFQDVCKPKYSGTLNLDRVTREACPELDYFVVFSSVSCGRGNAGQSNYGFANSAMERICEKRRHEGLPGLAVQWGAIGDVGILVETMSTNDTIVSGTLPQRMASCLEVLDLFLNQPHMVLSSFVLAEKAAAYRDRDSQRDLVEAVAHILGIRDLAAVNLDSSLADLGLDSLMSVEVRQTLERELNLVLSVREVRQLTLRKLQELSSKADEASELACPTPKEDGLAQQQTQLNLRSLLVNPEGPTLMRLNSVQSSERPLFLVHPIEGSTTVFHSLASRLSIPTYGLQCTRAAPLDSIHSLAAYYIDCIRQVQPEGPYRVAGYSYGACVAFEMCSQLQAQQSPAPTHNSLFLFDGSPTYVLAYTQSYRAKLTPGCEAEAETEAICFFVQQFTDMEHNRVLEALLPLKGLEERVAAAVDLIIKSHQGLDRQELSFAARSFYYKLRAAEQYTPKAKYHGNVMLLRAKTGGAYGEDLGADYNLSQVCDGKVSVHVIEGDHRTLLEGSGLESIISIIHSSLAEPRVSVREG

Row | IC50 | SMILES
1 | 1000 to 10000 nM | O=C(C1CC1)N1CCC(Oc2ccc(-c3ccc4cccnc4c3OCCN3CCCC3)cc2)CC1 [Example 174, Cyclopropyl-(4-{4-[8-(2-pyrrolidin-1-yl-ethoxy)-quinolin-7-yl]-phenoxy}-piperidin-1-yl)-methanone, HCl]
2 | 1000 to 10000 nM | CCC(=O)N1CCC(Oc2ccc(-c3ccc4cccnc4c3OCCCN3CCCC3)cc2)CC1 [Example 175, 1-(4-{4-[8-(3-Pyrrolidin-1-yl-propoxy)-quinolin-7-yl]-phenoxy}-piperidin-1-yl)-propan-1-one, HCl]
3 | 1000 to 10000 nM | O=C(C1CC1)N1CCC(Oc2ccc(-c3ccc4cccnc4c3OCCCN3CCCC3)cc2)CC1 [Example 176, Cyclopropyl-(4-{4-[8-(3-pyrrolidin-1-yl-propoxy)-quinolin-7-yl]-phenoxy}-piperidin-1-yl)-methanone, HCl]
4 | 1000 to 10000 nM | CCC(=O)N1CCC(Oc2ccc(-c3ccc4cccnc4c3OCCN3CCN(C)CC3)cc2)CC1 [Example 177, 1-[4-[4-[8-[2-(4-Methylpiperazin-1-yl)ethoxy]-7-quinolyl]phenoxy]-1-piperidyl]propan-1-one, HCl]
5 | 100 to 999 nM | CCC(=O)N1CCC(Oc2ccc(-c3ccc4cccnc4c3OCCOC)cc2)CC1 [Example 178, 1-[4-[4-[8-(2-Methoxyethoxy)-7-quinolyl]phenoxy]-1-piperidyl]propan-1-one, HCl]
6 | 100 to 999 nM | CCC(=O)N1CCC(Oc2ccc(-c3ccc4cccnc4c3OCCCOC)cc2)CC1 [Example 179, 1-[4-[4-[8-(3-Methoxypropoxy)-7-quinolyl]phenoxy]-1-piperidyl]propan-1-one, HCl]
7 | 1 to 99 nM | CC(C)Oc1c(-c2ccc(OC3CCN(C(=O)[C@H]4CCCO4)CC3)cc2)ccc2cccnc12 [Example 180, {4-[4-(8-Isopropoxyquinolin-7-yl)-phenoxy]-piperidin-1-yl}-(R)-tetrahydrofuran-2-yl-methanone, HCl]
8 | 1 to 99 nM | CCOc1c(-c2ccc(OC3CCN(C(=O)[C@H]4CCCO4)CC3)cc2)ccc2cccnc12 [Example 181, {4-[4-(8-Ethoxyquinolin-7-yl)-phenoxy]-piperidin-1-yl}-(R)-tetrahydro-furan-2-yl-methanone, HCl]
9 | 100 to 999 nM | O=C([C@H]1CCCO1)N1CCC(Oc2ccc(-c3ccc4cccnc4c3OCCN3CCOCC3)cc2)CC1 [Example 182, (4-{4-[8-(2-Morpholin-4-yl-ethoxy)-quinolin-7-yl]-phenoxy}-piperidin-1-yl)-(R)-tetrahydrofuran-2-yl-methanone, 2HCl]
10 | 1000 to 10000 nM | O=C([C@H]1CCCO1)N1CCC(Oc2ccc(-c3ccc4cccnc4c3OCCN3CCCC3)cc2)CC1 [Example 183]
11 | 100 to 999 nM | O=C([C@H]1CCCO1)N1CCC(Oc2ccc(-c3ccc4cccnc4c3OCCCN3CCCC3)cc2)CC1 [Example 184, (4-{4-[8-(3-Pyrrolidin-1-yl-propoxy)-quinolin-7-yl]-phenoxy}-piperidin-1-yl)-(R)-tetrahydrofuran-2-yl-methanone, HCl]
12 | 100 to 999 nM | CN1CCN(CCOc2c(-c3ccc(OC4CCN(C(=O)[C@H]5CCCO5)CC4)cc3)ccc3cccnc23)CC1 [Example 185, [4-[4-[8-[2-(4-Methylpiperazin-1-yl)ethoxy]-7-quinolyl]phenoxy]-1-piperidyl]-[(2R)-tetrahydrofuran-2-yl]methanone, HCl]
13 | 1 to 99 nM | COCCOc1c(-c2ccc(OC3CCN(C(=O)[C@H]4CCCO4)CC3)cc2)ccc2cccnc12 [Example 186, [4-[4-[8-(2-Methoxyethoxy)-7-quinolyl]phenoxy]-1-piperidyl]-[(2R)-tetrahydrofuran-2-yl]methanone, HCl]
14 | 1 to 99 nM | COCCCOc1c(-c2ccc(OC3CCN(C(=O)[C@H]4CCCO4)CC3)cc2)ccc2cccnc12 [Example 187, [4-[4-[8-(3-Methoxypropoxy)-7-quinolyl]phenoxy]-1-piperidyl]-[(2R)-tetrahydrofuran-2-yl]methanone, HCl]
15 | 100 to 999 nM | CCC(=O)N1CCC(Oc2ccc(-c3ccc4cccnc4c3O)cc2)CC1 [Example 188, 1-{4-[4-(8-Hydroxyquinolin-7-yl)-phenoxy]-piperidin-1-yl}-propan-1-one, HCl]
16 | 100 to 999 nM | O=C(C1CC1)N1CCC(Oc2ccc(-c3ccc4cccnc4c3O)cc2)CC1 [Example 189, Cyclopropyl-{4-[4-(8-hydroxyquinolin-7-yl)-phenoxy]-piperidin-1-yl}-methanone, HCl]
17 | 1 to 99 nM | O=C([C@H]1CCCO1)N1CCC(Oc2ccc(-c3ccc4cccnc4c3O)cc2)CC1 [Example 190, {4-[4-(8-Hydroxyquinolin-7-yl)-phenoxy]-piperidin-1-yl}-(R)-tetrahydro-furan-2-yl-methanone, HCl]
18 | 1000 to 10000 nM | CC(C)C(=O)N1CCC(Oc2ccc(-c3cnc4ccccc4c3)cc2Cl)CC1 [Example 192, 1-[4-(2-Chloro-4-quinolin-3-yl-phenoxy)-piperidin-1-yl]-2-methyl-propan-1-one]
19 | 1000 to 10000 nM | O=C(C1CC1)N1CCC(Oc2ccc(-c3cnc4ccccc4c3)cc2Cl)CC1 [Example 193, [4-(2-Chloro-4-quinolin-3-yl-phenoxy)-piperidin-1-yl]-cyclopropyl-methanone]
20 | 1000 to 10000 nM | CCC(=O)N1CCC(Oc2ccc(-c3ccc4cccnc4c3)cc2Cl)CC1 [Example 194, 1-[4-(2-Chloro-4-quinolin-7-yl-phenoxy)-piperidin-1-yl]-propan-1-one]

Row | IC50 | SMILES
21 | 1000 to 10000 nM | CC(C)C(=O)N1CCC(Oc2ccc(-c3ccc4cccnc4c3)cc2Cl)CC1 [Example 195, 1-[4-(2-Chloro-4-quinolin-7-yl-phenoxy)-piperidin-1-yl]-2-methyl-propan-1-one]
22 | 1000 to 10000 nM | CCC(=O)N1CCC(Oc2ccc(-c3cnc4ccccc4c3)cc2OC)CC1 [Example 196, 1-[4-(2-Methoxy-4-quinolin-3-yl-phenoxy)-piperidin-1-yl]-propan-1-one]
23 | 1000 to 10000 nM | COc1cc(-c2cnc3ccccc3c2)ccc1OC1CCN(C(=O)C(C)C)CC1 [Example 197, 1-[4-(2-Methoxy-4-quinolin-3-yl-phenoxy)-piperidin-1-yl]-2-methyl-propan-1-one]
24 | 1000 to 10000 nM | COc1cc(-c2cnc3ccccc3c2)ccc1OC1CCN(C(=O)C2CC2)CC1 [Example 198, Cyclopropyl-[4-(2-methoxy-4-quinolin-3-yl-phenoxy)-piperidin-1-yl]-methanone]
25 | 1000 to 10000 nM | CCC(=O)N1CCC(Oc2ccc(-c3ccc4cccnc4c3)cc2OC)CC1 [Example 199, 1-[4-(2-Methoxy-4-quinolin-7-yl-phenoxy)-piperidin-1-yl]-propan-1-one]
26 | 1 to 99 nM | CCC(=O)N1CCC(Oc2ccc(-c3cnc4ccccc4c3)c(F)c2)CC1 [Example 200, 1-[4-(3-Fluoro-4-quinolin-3-yl-phenoxy)-piperidin-1-yl]-propan-1-one]
27 | 1 to 99 nM | O=C(C1CC1)N1CCC(Oc2ccc(-c3cnc4ccccc4c3)c(F)c2)CC1 [Example 202, Cyclopropyl-[4-(3-fluoro-4-quinolin-3-yl-phenoxy)-piperidin-1-yl]-methanone]
28 | 1 to 99 nM | CCC(=O)N1CCC(Oc2ccc(-c3cnc4ccccc4c3)c(Cl)c2)CC1 [Example 203, 1-[4-(3-Chloro-4-quinolin-3-yl-phenoxy)-piperidin-1-yl]-propan-1-one]
29 | 100 to 999 nM | CC(C)C(=O)N1CCC(Oc2ccc(-c3cnc4ccccc4c3)c(Cl)c2)CC1 [Example 204, 1-[4-(3-Chloro-4-quinolin-3-yl-phenoxy)-piperidin-1-yl]-2-methyl-propan-1-one]
30 | 1 to 99 nM | O=C(C1CC1)N1CCC(Oc2ccc(-c3cnc4ccccc4c3)c(Cl)c2)CC1 [Example 205, [4-(3-Chloro-4-quinolin-3-yl-phenoxy)-piperidin-1-yl]-cyclopropyl-methanone]
31 | 1000 to 10000 nM | Cc1cc(OC2CCN(C(=O)C(C)C)CC2)ccc1-c1cnc2ccccc2c1 [Example 206, 2-Methyl-1-[4-(3-methyl-4-quinolin-3-yl-phenoxy)-piperidin-1-yl]-propan-1-one]
32 | 100 to 999 nM | CCC(=O)N1CCC(Oc2ccc(-c3cnc4ccccc4c3)c(C)c2)CC1 [Example 207, 1-[4-(3-Methyl-4-quinolin-3-yl-phenoxy)-piperidin-1-yl]-propan-1-one]
33 | 1000 to 10000 nM | COC(=O)N1CCC(Oc2ccc(-c3cnc4ccccc4c3)c(C)c2)CC1 [Example 208, 4-(3-Methyl-4-quinolin-3-yl-phenoxy)-piperidine-1-carboxylic acid methyl ester]
34 | 1000 to 10000 nM | CCC(=O)N1CCC(Oc2ccc(-c3cnc4ccccc4c3)c(OC)c2)CC1 [Example 209, 1-[4-(3-Methoxy-4-quinolin-3-yl-phenoxy)-piperidin-1-yl]-propan-1-one]
35 | 1000 to 10000 nM | COc1cc(OC2CCN(C(=O)C(C)C)CC2)ccc1-c1cnc2ccccc2c1 [Example 210, 1-[4-(3-Methoxy-4-quinolin-3-yl-phenoxy)-piperidin-1-yl]-2-methyl-propan-1-one]
36 | 1000 to 10000 nM | COc1cc(OC2CCN(C(=O)C3CC3)CC2)ccc1-c1cnc2ccccc2c1 [Example 211, Cyclopropyl-[4-(3-methoxy-4-quinolin-3-yl-phenoxy)-piperidin-1-yl]-methanone]
37 | 1000 to 10000 nM | CCC(=O)N1CCC(Oc2ccc(-c3cnc4ccccc4c3)cc2C)CC1 [Example 212, 1-[4-(2-Methyl-4-quinolin-3-yl-phenoxy)-piperidin-1-yl]-propan-1-one]
38 | 1000 to 10000 nM | Cc1cc(-c2cnc3ccccc3c2)ccc1OC1CCN(C(=O)C(C)C)CC1 [Example 213, 2-Methyl-1-[4-(2-methyl-4-quinolin-3-yl-phenoxy)-piperidin-1-yl]-propan-1-one]
39 | 1000 to 10000 nM | Cc1cc(-c2cnc3ccccc3c2)ccc1OC1CCN(C(=O)C2CC2)CC1 [Example 214, Cyclopropyl-[4-(2-methyl-4-quinolin-3-yl-phenoxy)-piperidin-1-yl]-methanone]
